Results: article PMC4109837 (2014)
Blank lines part the entries; values can stand above or below the compound they belong to.

Columns and labels:
[1] = tested on: NOX-S93 (L-RNA, aptamer, four 2'-deoxyribonucleotides (positions not given; Figure 1)) GCGUGAAUAGCCGUUGAAACGCCUUUAGAGAAGCACUAGCACGC; assay: neutralisation in S1PR3 calcium release cell assay, direct; settings: UltraCHO medium, 20 mM Hepes
[2] = tested on: NOX-S93 (L-RNA, aptamer, four 2'-deoxyribonucleotides (positions not given; Figure 1)) GCGUGAAUAGCCGUUGAAACGCCUUUAGAGAAGCACUAGCACGC; assay: competition in S1PR3 calcium release cell assay; settings: UltraCHO medium, 20 mM Hepes, 100 nM NOX-S93, 10 nM S1P

binding ([1]; 30 nM dihydro-S1P): yes
Structure (SMILES): CCCCCCCCCCCCCCC[C@@H](O)[C@@H](N)COP(=O)(O)O

binding ([1]; 10 nM C17-S1P): yes
Structure (SMILES): CCCCCCCCCCCC/C=C/[C@@H](O)[C@@H](N)COP(=O)(O)O

binding ([1]; 50 nM LPA, no inhibition): no
Structure (SMILES): CCCCCCCC/C=C\CCCCCCCC(=O)OC[C@@H](O)COP(=O)(O)O

binding ([2]; up to 3 μM competitor): no
Structure (SMILES): CCCCCCCCCCCCC/C=C/[C@@H](O)[C@H](CO)NC(C)=O

binding ([2]; up to 3 μM competitor): no
Structure (SMILES): CCCCCCCCCCCCC/C=C/[C@@H](O)[C@H](COP(=O)(O)O)NC(=O)CCCCCCCCCCCCCCC

binding ([2]; up to 300 nM competitor): no
Structure (SMILES): CCCCCCCCCCCCC/C=C/[C@@H](O)[C@@H](N)COP(=O)([O-])OCC[N+](C)(C)C

binding ([1]; 80 nM C20-S1P): yes
Structure (SMILES): CCCCCCCCCCCCCCC/C=C/[C@@H](O)[C@@H](N)COP(=O)(O)O

binding ([2]; up to 1 μM competitor): no
Structure (SMILES): CCCCCCCCCCCCC/C=C/[C@@H](O)[C@@H](N)CO

binding ([1]; 10 nM S1P): yes
Structure (SMILES): CCCCCCCCCCCCC/C=C/[C@@H](O)[C@@H](N)COP(=O)(O)O
